Eight compounds from ChEMBL document CHEMBL3244064, “Conformational effects on the activity of drugs. 7. Synthesis and pharmacological properties of 2-(p-nitrophenyl)-substituted morpholines” (J Med Chem, 1979) can be followed below.

What all share (assay type): protein assay
Experiment [1] concerns the target T1, Adrenergic receptor alpha (Rattus norvegicus) (UniProt P15823+P23944+P43140+P22086+P19328+P22909). As to the kind of experiment: Stimulation of alpha-adrenergic receptor in ICEM:CER SPF Caw rat vas deferens assessed as muscle contraction after 2 to 3 mins relative to norepinephrine.
The target of experiment [2] is T1, Adrenergic receptor alpha (Rattus norvegicus). As to the kind of experiment: Stimulation of alpha-adrenergic receptor in ICEM:CER SPF Caw rat vas deferens assessed as muscle contraction after 2 to 3 mins relative to INPEA.
Experiment [3] shares this target. As to the kind of experiment: Stimulation of alpha-adrenergic receptor in ICEM:CER SPF Caw rat vas deferens assessed as potentiation of norepinephrine response at 50 uM after 2 to 3 mins.
Experiment [4] has the same target. The experiment can be described thus: Stimulation of alpha-adrenergic receptor in ICEM:CER SPF Caw rat vas deferens assessed as muscle contraction after 2 to 3 mins in presence of alpha-adrenoceptor blocker dihydroergotamine.
Experiment [5] shares this target. The experiment can be described thus: Stimulation of alpha-adrenergic receptor in reserpine-pretreated ICEM:CER SPF Caw rat vas deferens assessed as muscle contraction after 2 to 3 mins.

Active and inactive are the calls of the source. No cut-off for these calls is given here.

Turning to `O=[N+]([O-])c1ccc(C2CNCCO2)cc1` (stereo not drawn), the Ratio in experiment [1] was found to be 0.0063; in experiment [2], 1.4. Besides, the Activity in experiment [3] came to 203%. In experiment [4], the result was inactive.
Consider `CC(C)N1CCOC(c2ccc([N+](=O)[O-])cc2)C1` (stereo not drawn), for which the Ratio was 0.0045 in experiment [1] and 1 in experiment [2]. Besides, the Activity in experiment [3] is 223%. The outcome in experiment [4] was inactive. Further, in experiment [5], the outcome was Active.
As to `CC(C)(C)N1CCOC(c2ccc([N+](=O)[O-])cc2)C1` (stereo not drawn), the Ratio in experiment [1] is 0.0029; in experiment [2] it was 0.64. For the same compound, in experiment [3], the Activity was found to be 169%. Also, the result in experiment [4] was inactive.
As for `NCC(O)c1ccc([N+](=O)[O-])cc1` (stereo not drawn), the Ratio in experiment [1] came out at 0.0075; in experiment [2], 1.66. The Activity in experiment [3] was determined as 179%. In addition, the outcome in experiment [4] was inactive.
The like results for `CC(C)(C)NCC(O)c1ccc([N+](=O)[O-])cc1` (stereo not drawn) were, in that order, 0.0012, 0.27, 127% and “inactive”.
`CC(C)NCC(O)c1ccc([N+](=O)[O-])cc1` (stereo not drawn): in experiment [1], the Ratio was 0.0045. For the same compound, the Activity in experiment [3] came to 209%. In experiment [4], the result was inactive. Moreover, the outcome in experiment [5] was Active.
In the case of `CN1CCOC(c2ccc([N+](=O)[O-])cc2)C1` (stereo not drawn), the Ratio was 0.0014 in experiment [1] and 0.31 in experiment [2]. In experiment [3], the Activity is 192%. In addition, the outcome in experiment [4] was inactive.
For `CNCC(O)c1ccc([N+](=O)[O-])cc1` (stereo not drawn), in that order: 0.0047, 1.04, 253% and “inactive”.
